From patent US10202361B2, “Pyridazinones as herbicides” (E I DU PONT DE NEMOURS AND COMPANY, priority 2014, dated 2019)
Read-outs that look alike come from different tables or passages of the source.

How the values were obtained:
Type in all cases: in vivo
[1] = tested on: sedge, umbrella (small-flower umbrella sedge, Cyperus difformis); assay: Test B flooded paddy test; settings: Cyperus difformis, 312 h; Flood, 125 g ai/ha; scale of 0 to 100, 0 is no effect, 100 is complete control; 13 to 15 d; read-out: Plant response rating, Sedge, Umbrella
Outline: (§1)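 Visual scores from 0 (no effect) to 100 (complete control) are relative to controls, assessed 13 to 15 d after treatment under greenhouse conditions. Treatment went into the paddy water of pots flooded 3 cm deep, with seedlings at the 2-leaf stage and flooding maintained.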

[2] = tested on: rice (Oryza sativa); assay: Test B flooded paddy test; settings: Oryza sativa, 312 h; Flood, 125 g ai/ha; scale of 0 to 100, 0 is no effect, 100 is complete control; 13 to 15 d; read-out: Plant response rating, Rice
Outline: as §1

[3] = tested on: ducksalad (Heteranthera limosa); assay: Test B flooded paddy test; settings: Heteranthera limosa, 312 h; Flood, 125 g ai/ha; scale of 0 to 100, 0 is no effect, 100 is complete control; 13 to 15 d; read-out: Plant response rating, Ducksalad
Outline: as §1

[4] = tested on: barnyardgrass (Echinochloa crus-galli); assay: Test B flooded paddy test; settings: Echinochloa crus-galli, 312 h; Flood, 125 g ai/ha; scale of 0 to 100, 0 is no effect, 100 is complete control; 13 to 15 d; read-out: Plant response rating, Barnyardgrass
Outline: as §1

[5] = tested on: morningglory (Ipomoea spp.); assay: Test A pre-/postemergence greenhouse herbicide test; settings: Ipomoea, post-emergence, 240 h, Postemergence, 0 to 100 scale (0 no effect, 100 complete control), approx. 10 d, read-out: Plant response rating, Morningglory
Outline: (§2)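 Injury was scored visually on a 0 to 100 scale, where 0 meant no effect and 100 complete control, relative to untreated plants after about 10 d in the greenhouse. Preemergence treatment was a directed soil spray on seeded loam–sand; postemergence spray went onto one- to two-leaf plants.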

[6] = tested on: pigweed (Amaranthus retroflexus); assay: as above; settings: Amaranthus retroflexus, 240 h, 0 to 100 scale (0 no effect, 100 complete control), approx. 10 d, read-out: Plant response rating, Pigweed; for pest or weed control at 125 g/ha: 125 g ai/ha; for pest or weed control at 500 g/ha: 500 g ai/ha
Outline: as §2

[7] = tested on: wheat (Triticum aestivum); assay: as above; settings: Triticum aestivum, 240 h, 0 to 100 scale (0 no effect, 100 complete control), approx. 10 d, read-out: Plant response rating, Wheat; for plant injury at 125 g/ha: 125 g ai/ha; for plant injury at 500 g/ha: 500 g ai/ha
Outline: as §2

[8] = tested on: crabgrass, Large (large crabgrass, Digitaria sanguinalis); assay: as above; settings: Digitaria sanguinalis, 240 h, 0 to 100 scale (0 no effect, 100 complete control), approx. 10 d, read-out: Plant response rating, Crabgrass, Large; for pest or weed control at 125 g/ha: 125 g ai/ha; for pest or weed control at 500 g/ha: 500 g ai/ha
Outline: as §2

[9] = tested on: velvetleaf (Abutilon theophrasti); assay: as above; settings: Abutilon theophrasti, 240 h, 0 to 100 scale (0 no effect, 100 complete control), approx. 10 d, read-out: Plant response rating, Velvetleaf; for pest or weed control at 125 g/ha: 125 g ai/ha; for pest or weed control at 500 g/ha: 500 g ai/ha
Outline: as §2

[10] = tested on: barnyardgrass (Echinochloa crus-galli); assay: as above; settings: Echinochloa crus-galli, 240 h, 0 to 100 scale (0 no effect, 100 complete control), approx. 10 d, read-out: Plant response rating, Barnyardgrass; for pest or weed control at 125 g/ha: 125 g ai/ha; for pest or weed control at 500 g/ha: 500 g ai/ha
Outline: as §2

[11] = tested on: corn (Zea mays); assay: as above; settings: Zea mays, 240 h, 0 to 100 scale (0 no effect, 100 complete control), approx. 10 d; for Corn plant response rating (crop injury, 0 = no effect, 100 = complete kill) at 125 g/ha: 125 g ai/ha; for Corn plant response rating (crop injury, 0 = no effect, 100 = complete kill) at 500 g/ha: 500 g ai/ha
Outline: as §2

[12] = tested on: foxtail, giant (giant foxtail, Setaria faberii); assay: as above; settings: Setaria faberi, 240 h, 0 to 100 scale (0 no effect, 100 complete control), approx. 10 d, read-out: Plant response rating, Foxtail, Giant; for pest or weed control at 125 g/ha: 125 g ai/ha; for pest or weed control at 500 g/ha: 500 g ai/ha
Outline: as §2

Work on `COc1cc(=O)n(-c2ccc(F)cc2)nc1Cc1ccnc(C(F)(F)F)c1` [Compound 17, 2-(4-fluorophenyl)-5-methoxy-6-[[2-(trifluoromethyl)-4-pyridinyl]methyl]-3 (2H)-pyridazinone] yielded a pest or weed control at 125 g/ha [1] of 90%, a plant injury at 125 g/ha [2] of 70% and a pest or weed control at 125 g/ha [3] of 90%. The pest or weed control at 125 g/ha [4] was 90%, the pest or weed control at 125 g/ha ([5]; 125 g ai/ha) was 100% and the pest or weed control at 500 g/ha ([5]; 500 g ai/ha) was 100%. It also gave a pest or weed control at 125 g/ha ([6]; post-emergence, Postemergence) of 100%, a pest or weed control at 500 g/ha ([6]; post-emergence, Postemergence) of 100% and a pest or weed control at 125 g/ha ([6]; pre-emergence, Preemergence) of 100%. It also gave a pest or weed control at 500 g/ha ([6]; pre-emergence, Preemergence) of 100%, a plant injury at 125 g/ha ([7]; post-emergence, Postemergence) of 60% and a plant injury at 500 g/ha ([7]; post-emergence, Postemergence) of 70%. For the same molecule, the plant injury at 125 g/ha ([7]; pre-emergence, Preemergence) was 20%, the plant injury at 500 g/ha ([7]; pre-emergence, Preemergence) was 50% and the pest or weed control at 125 g/ha ([8]; post-emergence, Postemergence) was 90%. The pest or weed control at 500 g/ha ([8]; post-emergence, Postemergence) was 90%, the pest or weed control at 125 g/ha ([8]; pre-emergence, Preemergence) was 100% and the pest or weed control at 500 g/ha ([8]; pre-emergence, Preemergence) was 100%. It also gave a pest or weed control at 125 g/ha ([9]; post-emergence, Postemergence) of 100%, a pest or weed control at 500 g/ha ([9]; post-emergence, Postemergence) of 100% and a pest or weed control at 125 g/ha ([9]; pre-emergence, Preemergence) of 100%. For the same molecule, the pest or weed control at 500 g/ha ([9]; pre-emergence, Preemergence) was 100%, the pest or weed control at 125 g/ha ([10]; post-emergence, Postemergence) was 80% and the pest or weed control at 500 g/ha ([10]; post-emergence, Postemergence) was 90%. It also gave a pest or weed control at 125 g/ha ([10]; pre-emergence, Preemergence) of 80%, a pest or weed control at 500 g/ha ([10]; pre-emergence, Preemergence) of 100% and a Corn plant response rating (crop injury, 0 = no effect, 100 = complete kill) at 125 g/ha ([11]; post-emergence, Postemergence) of 60%. For the same molecule, the Corn plant response rating (crop injury, 0 = no effect, 100 = complete kill) at 500 g/ha ([11]; post-emergence, Postemergence) was 80%, the Corn plant response rating (crop injury, 0 = no effect, 100 = complete kill) at 125 g/ha ([11]; pre-emergence, Preemergence) was 40% and the Corn plant response rating (crop injury, 0 = no effect, 100 = complete kill) at 500 g/ha ([11]; pre-emergence, Preemergence) was 50%. It also gave a pest or weed control at 125 g/ha ([12]; post-emergence, Postemergence) of 90%, a pest or weed control at 500 g/ha ([12]; post-emergence, Postemergence) of 90% and a pest or weed control at 125 g/ha ([12]; pre-emergence, Preemergence) of 100%. The pest or weed control at 500 g/ha ([12]; pre-emergence, Preemergence) was 100%.
